Measured values published in US10912818B2, “Use of microorganisms for the prevention and treatment of intestinal diseases” (Ludwig Stocker Hofpfisterei GmbH, priority 2013, dated 2021).
Entries after “also recorded” stand apart in the source; their conditions may differ.

How the values were obtained:
[1] = test system: corpus circular muscle preparations; test: Motility: contractile force of corpus circular muscle preparations in organ bath; type: cell-based, guinea pig
[2] = test system: distal colon mucosa/submucosa preparations; test: Ussing chamber: short circuit current (chloride ion secretion) across colonic mucosa/submucosa preparations; type: cell-based, guinea pig

SMILES	Effect of TTX pre-treatment on muscle contraction stimulated by ACH and extracts [1]	Effect of atropine applied mucosally on secretion stimulated by ACH applied serosally [2]	Effect of atropine applied on mucosal side on secretion stimulated from the mucosal side [2]	Effect of atropine applied on serosal side on secretion stimulated from the mucosal side [2]	Effect of atropine pre-treatment on secretion stimulated by ACH and extracts [2]	Effect of atropine pre-treatment on muscle contraction stimulated by ACH and extracts [1]
NC1=N[C@H](O)[C@H]2[C@H]3O[C@]4(O)O[C@@H]([C@@H](O)[C@@]2(N1)[C@@H]4O)[C@]3(O)CO [TTX, Tetrodotoxin]	no significant effect					
CN1[C@@H]2CC[C@H]1C[C@@H](OC(=O)C(CO)c1ccccc1)C2 (stereo partly drawn) [atropine]		secretion was inhibited	only partially inhibiting ACH activity; also recorded: not mucosally	significantly inhibited; also recorded: completely abrogated secretion	completely abolished the response; also recorded: completely abrogated secretion stimulation	completely abrogated stimulation; also recorded: completely abolished
